Patent US9139532B2, “Pyrazolyl guanidine F1F0-atpase inhibitors and therapeutic uses thereof” (Lycera Corporation, priority 2010, dated 2015)
Like-named read-outs stand apart in the source and are kept apart here.

Experiments:
Ramos cells = assay: Cytotoxicity in Ramos cells; assay type: cell-based; conditions: Homo sapiens, read-out: Ramos Cell EC50
F1F0-ATPase = target: T1, F1F0-ATPase (Bos taurus, UniProt P13621); assay: Inhibition of F1F0-ATPase activity in synthesizing ATP; assay type: biochemical; conditions: inhibition of ATP synthesis by F1F0-ATPase; read-out: ATP Syn IC50
T1 construct: from tissue

Compound: C[C@@H](N/C(=N/C(=O)c1ccc(F)c(F)c1)Nc1cc(C(F)(F)F)[nH]n1)c1ccc(Cl)cc1 [Compound A-46]
- EC50 (Ramos cells; cytotoxicity in Ramos cells): < 10 µM
- IC50 (F1F0-ATPase): < 10 µM

Compound: C[C@H](N/C(=N/C(=O)c1ccc(F)c(F)c1)Nc1cc(C(F)(F)F)[nH]n1)c1ccc(Cl)cc1 [Compound A-47]
- EC50 (Ramos cells; cytotoxicity in Ramos cells): < 10 µM
- IC50 (F1F0-ATPase): < 10 µM

Compound: Cn1nc(C(F)(F)F)cc1N/C(=N\C(=O)c1ccc(C(F)(F)F)cc1)Nc1cc(F)cc(Cl)c1 [Compound A-48]
- EC50 (Ramos cells; cytotoxicity in Ramos cells): < 10 µM
- IC50 (F1F0-ATPase): < 10 µM

Compound: CC(C)(C)N/C(=N/C(=O)c1ccc(C(F)(F)F)cc1)Nc1cc(-c2ccc(F)cc2)[nH]n1 [Compound A-50]
- EC50 (Ramos cells; cytotoxicity in Ramos cells): < 10 µM
- IC50 (F1F0-ATPase): < 10 µM

Compound: CC(C)(C)CN/C(=N/C(=O)c1ccc(C(F)(F)F)cc1)Nc1cc(C(F)(F)F)n[nH]1 [Compound A-51]
- EC50 (Ramos cells; cytotoxicity in Ramos cells): < 10 µM
- IC50 (F1F0-ATPase): < 10 µM

Compound: O=C(/N=C(/Nc1cc(F)cc(Cl)c1)Nc1cc(C(F)F)[nH]n1)c1ccc(F)c(F)c1 [Compound A-52]
- EC50 (Ramos cells; cytotoxicity in Ramos cells): < 10 µM
- IC50 (F1F0-ATPase): < 10 µM

Compound: CC(C)(C)N/C(=N/C(=O)c1ccc(C(F)(F)F)cc1)Nc1cc(C(F)F)[nH]n1 [Compound A-53]
- EC50 (Ramos cells; cytotoxicity in Ramos cells): < 10 µM
- IC50 (F1F0-ATPase): < 10 µM

Compound: CC(C)(C)N/C(=N/C(=O)c1ccc(Cl)cc1)Nc1cc(C(F)F)[nH]n1 [Compound A-54]
- EC50 (Ramos cells; cytotoxicity in Ramos cells): < 10 µM
- IC50 (F1F0-ATPase): < 10 µM

Compound: CC(C)N/C(=N/C(=O)c1ccc(Cl)cc1)Nc1cc(C(F)F)[nH]n1 [Compound A-55]
- EC50 (Ramos cells; cytotoxicity in Ramos cells): > 10 µM
- IC50 (F1F0-ATPase): < 10 µM

Compound: O=C(/N=C(/NCc1ccc(F)c(Cl)c1)Nc1cc(C(F)F)[nH]n1)c1ccc(Cl)cc1 [Compound A-56]
- EC50 (Ramos cells; cytotoxicity in Ramos cells): > 10 µM
- IC50 (F1F0-ATPase): < 10 µM

Compound: O=C(/N=C(/Nc1cc(F)cc(Cl)c1)Nc1cc(C(F)F)[nH]n1)c1ccc(Cl)cc1 [Compound A-57]
- EC50 (Ramos cells; cytotoxicity in Ramos cells): < 10 µM
- IC50 (F1F0-ATPase): < 10 µM

Compound: CC(C)N/C(=N/C(=O)c1ccc(C(F)(F)F)cc1)Nc1cc(C(F)F)[nH]n1 [Compound A-58]
- EC50 (Ramos cells; cytotoxicity in Ramos cells): > 10 µM
- IC50 (F1F0-ATPase): < 10 µM

Compound: O=C(/N=C(/NCc1ccc(F)c(Cl)c1)Nc1cc(C(F)F)[nH]n1)c1ccc(C(F)(F)F)cc1 [Compound A-59]
- EC50 (Ramos cells; cytotoxicity in Ramos cells): > 10 µM
- IC50 (F1F0-ATPase): < 10 µM

Compound: O=C(/N=C(/Nc1cc(F)cc(Cl)c1)Nc1cc(C(F)F)[nH]n1)c1ccc(C(F)(F)F)cc1 [Compound A-60]
- EC50 (Ramos cells; cytotoxicity in Ramos cells): < 10 µM
- IC50 (F1F0-ATPase): < 10 µM

Compound: O=C(/N=C(/NCc1ccc(F)c(Cl)c1)Nc1cc(C(F)F)[nH]n1)c1ccc(F)c(F)c1 [Compound A-61]
- EC50 (Ramos cells; cytotoxicity in Ramos cells): > 10 µM
- IC50 (F1F0-ATPase): < 10 µM

Compound: CC(C)(C)N/C(=N/C(=O)c1ccc(F)c(F)c1)Nc1cc(C(F)F)[nH]n1 [Compound A-62]
- EC50 (Ramos cells; cytotoxicity in Ramos cells): < 10 µM
- IC50 (F1F0-ATPase): < 10 µM

Compound: CC(C)N/C(=N/C(=O)c1ccc(F)c(F)c1)Nc1cc(C(F)F)[nH]n1 [Compound A-63]
- EC50 (Ramos cells; cytotoxicity in Ramos cells): > 10 µM
- IC50 (F1F0-ATPase): < 10 µM

Compound: CC(C)(C)N/C(=N/C(=O)c1ccc(C(F)F)cc1)Nc1cc(C(F)(F)F)[nH]n1 [Compound A-64]
- EC50 (Ramos cells; cytotoxicity in Ramos cells): < 10 µM
- IC50 (F1F0-ATPase): < 10 µM

Compound: CC(C)(C)N/C(=N/C(=O)c1ccc(Cl)c(F)c1)Nc1cc(C(F)F)[nH]n1 [Compound A-65]
- EC50 (Ramos cells; cytotoxicity in Ramos cells): < 10 µM
- IC50 (F1F0-ATPase): < 10 µM

Compound: CC(C)(C)CN/C(=N/C(=O)c1ccc(C(F)F)cc1)Nc1cc(C(F)(F)F)[nH]n1 [Compound A-66]
- EC50 (Ramos cells; cytotoxicity in Ramos cells): < 10 µM
- IC50 (F1F0-ATPase): < 10 µM

Compound: O=C(/N=C(\Nc1cc(C(F)(F)F)[nH]n1)NC1CCCC1)c1ccc(C(F)F)cc1 [Compound A-67]
- EC50 (Ramos cells; cytotoxicity in Ramos cells): < 10 µM
- IC50 (F1F0-ATPase): < 10 µM

Compound: CC(C)(C)CN/C(=N/C(=O)c1ccc(C(F)(F)F)cc1)Nc1cc(C(F)F)[nH]n1 [Compound A-68]
- EC50 (Ramos cells; cytotoxicity in Ramos cells): < 10 µM
- IC50 (F1F0-ATPase): < 10 µM

Compound: CC(C)(C)CN/C(=N/C(=O)c1ccc(Cl)cc1)Nc1cc(C(F)F)[nH]n1 [Compound A-69]
- EC50 (Ramos cells; cytotoxicity in Ramos cells): < 10 µM
- IC50 (F1F0-ATPase): < 10 µM

Compound: CC(C)(C)CN/C(=N/C(=O)c1ccc(C#N)cc1)Nc1cc(C(F)(F)F)[nH]n1 [Compound A-70]
- EC50 (Ramos cells; cytotoxicity in Ramos cells): < 10 µM
- IC50 (F1F0-ATPase): < 10 µM

Compound: CC(C)(C)N/C(=N/C(=O)c1ccc(C#N)cc1)Nc1cc(C(F)(F)F)[nH]n1 [Compound A-71]
- EC50 (Ramos cells; cytotoxicity in Ramos cells): < 10 µM
- IC50 (F1F0-ATPase): < 10 µM

Compound: CC(C)(C)CN/C(=N/C(=O)c1cccc(C#N)c1)Nc1cc(C(F)(F)F)[nH]n1 [Compound A-72]
- EC50 (Ramos cells; cytotoxicity in Ramos cells): < 10 µM
- IC50 (F1F0-ATPase): < 10 µM

Compound: CC(C)(C)N/C(=N/C(=O)c1cccc(C#N)c1)Nc1cc(C(F)(F)F)[nH]n1 [Compound A-73]
- EC50 (Ramos cells; cytotoxicity in Ramos cells): < 10 µM
- IC50 (F1F0-ATPase): < 10 µM

Compound: CCC(C)(C)N/C(=N/C(=O)c1ccc(C(F)F)cc1)Nc1cc(C(F)(F)F)[nH]n1 [Compound A-74]
- EC50 (Ramos cells; cytotoxicity in Ramos cells): < 10 µM
- IC50 (F1F0-ATPase): < 10 µM

Compound: O=C(/N=C(\Nc1cc(C(F)(F)F)[nH]n1)NC1CCCC1)c1cccc(C(F)(F)F)c1 [Compound A-75]
- EC50 (Ramos cells; cytotoxicity in Ramos cells): < 10 µM
- IC50 (F1F0-ATPase): < 10 µM

Compound: CC(C)(C)CN/C(=N/C(=O)c1cccc(C(F)(F)F)c1)Nc1cc(C(F)(F)F)[nH]n1 [Compound A-76]
- EC50 (Ramos cells; cytotoxicity in Ramos cells): < 10 µM
- IC50 (F1F0-ATPase): < 10 µM

Compound: CC(C)(C)N/C(=N/C(=O)c1cccc(C(F)(F)F)c1)Nc1cc(C(F)(F)F)[nH]n1 [Compound A-77]
- EC50 (Ramos cells; cytotoxicity in Ramos cells): < 10 µM
- IC50 (F1F0-ATPase): < 10 µM

Compound: CCC(C)(C)N/C(=N/C(=O)c1cccc(C(F)(F)F)c1)Nc1cc(C(F)(F)F)[nH]n1 [Compound A-78]
- EC50 (Ramos cells; cytotoxicity in Ramos cells): < 10 µM
- IC50 (F1F0-ATPase): < 10 µM

Compound: CC(C)(C)N/C(=N/C(=O)c1ccc(C(F)(F)F)nc1)Nc1cc(C(F)(F)F)[nH]n1 [Compound A-79]
- EC50 (Ramos cells; cytotoxicity in Ramos cells): < 10 µM
- IC50 (F1F0-ATPase): < 10 µM

Compound: CC(C)(C)CN/C(=N/C(=O)c1ccc(C(F)(F)F)nc1)Nc1cc(C(F)(F)F)[nH]n1 [Compound A-80]
- EC50 (Ramos cells; cytotoxicity in Ramos cells): < 10 µM
- IC50 (F1F0-ATPase): < 10 µM

Compound: N#Cc1ccc(C(=O)/N=C(/NCc2ccc(F)cc2Cl)Nc2cc(C(F)(F)F)[nH]n2)cc1 [Compound A-81]
- EC50 (Ramos cells; cytotoxicity in Ramos cells): < 10 µM
- IC50 (F1F0-ATPase): < 10 µM

Compound: N#Cc1cccc(C(=O)/N=C(/NCc2ccc(F)cc2Cl)Nc2cc(C(F)(F)F)[nH]n2)c1 [Compound A-82]
- EC50 (Ramos cells; Ramos): < 10 µM
- IC50 (F1F0-ATPase): < 10 µM

Compound: O=C(/N=C(/NCc1ccc(F)cc1Cl)Nc1cc(C(F)(F)F)[nH]n1)c1ccc(C(F)F)cc1 [Compound A-83]
- EC50 (Ramos cells; cytotoxicity in Ramos cells): < 10 µM
- IC50 (F1F0-ATPase): < 10 µM

Compound: Cc1cc(C(=O)/N=C(\Nc2cc(C(F)(F)F)[nH]n2)NC(C)(C)C)ccn1 [Compound A-84]
- EC50 (Ramos cells; cytotoxicity in Ramos cells): > 10 µM
- IC50 (F1F0-ATPase): < 10 µM

Compound: Cc1cc(C(=O)/N=C(/NCC(C)(C)C)Nc2cc(C(F)(F)F)[nH]n2)ccn1 [Compound A-85]
- EC50 (Ramos cells; cytotoxicity in Ramos cells): > 10 µM
- IC50 (F1F0-ATPase): < 10 µM

Compound: Cc1cc(C(=O)/N=C(/NCc2ccc(F)cc2Cl)Nc2cc(C(F)(F)F)[nH]n2)ccn1 [Compound A-86]
- EC50 (Ramos cells; cytotoxicity in Ramos cells): > 10 µM
- IC50 (F1F0-ATPase): < 10 µM

Compound: O=C(/N=C(\Nc1cc(C(F)(F)F)[nH]n1)NC1CCCCCC1)c1ccc(C(F)F)cc1 [Compound A-87]
- EC50 (Ramos cells; cytotoxicity in Ramos cells): < 10 µM
- IC50 (F1F0-ATPase): < 10 µM

Compound: CC(C)(C)CN/C(=N/C(=O)c1ccc(F)c(F)c1)Nc1cc(C(F)F)[nH]n1 [Compound A-88]
- EC50 (Ramos cells; cytotoxicity in Ramos cells): < 10 µM
- IC50 (F1F0-ATPase): < 10 µM

Compound: CC(N/C(=N\C(=O)c1ccc(C(F)(F)F)cc1)Nc1cc(C(F)(F)F)n[nH]1)c1cccc(Cl)c1 (stereo not shown) [Compound A-89]
- EC50 (Ramos cells; cytotoxicity in Ramos cells): < 10 µM
- IC50 (F1F0-ATPase): < 10 µM

Compound: CC(C)N/C(=N/C(=O)c1ccc(C(F)(F)F)cc1)Nc1cc(C(F)(F)F)n[nH]1 [Compound A-90]
- EC50 (Ramos cells; cytotoxicity in Ramos cells): < 10 µM
- IC50 (F1F0-ATPase): < 10 µM

Compound: O=C(/N=C(\Nc1cc(C(F)(F)F)n[nH]1)NC1CCC1)c1ccc(C(F)(F)F)cc1 [Compound A-91]
- EC50 (Ramos cells; cytotoxicity in Ramos cells): < 10 µM
- IC50 (F1F0-ATPase): < 10 µM

Compound: O=C(/N=C(/Nc1cc(C(F)(F)F)n[nH]1)NC1CCCC1)c1ccc(C(F)(F)F)cc1 [Compound A-92]
- EC50 (Ramos cells; cytotoxicity in Ramos cells): < 10 µM
- IC50 (F1F0-ATPase): < 10 µM

Compound: CCC(C)(C)N/C(=N/C(=O)c1ccc(C(F)(F)F)cc1)Nc1cc(C(F)(F)F)n[nH]1 [Compound A-93]
- EC50 (Ramos cells; cytotoxicity in Ramos cells): < 10 µM
- IC50 (F1F0-ATPase): < 10 µM

Compound: C[C@H](N/C(=N\C(=O)c1ccc(C(F)(F)F)cc1)Nc1cc(C(F)(F)F)n[nH]1)C1CCCCC1 [Compound A-94]
- EC50 (Ramos cells; cytotoxicity in Ramos cells): < 10 µM
- IC50 (F1F0-ATPase): < 10 µM

Compound: O=C(/N=C(\Nc1cc(C(F)(F)F)n[nH]1)NC1CCOCC1)c1ccc(C(F)(F)F)cc1 [Compound A-95]
- EC50 (Ramos cells; cytotoxicity in Ramos cells): < 10 µM
- IC50 (F1F0-ATPase): < 10 µM

Compound: O=C(/N=C(\Nc1cc(C(F)(F)F)n[nH]1)NC1CCCOC1)c1ccc(C(F)(F)F)cc1 (stereo not shown) [Compound A-96]
- EC50 (Ramos cells; cytotoxicity in Ramos cells): < 10 µM
- IC50 (F1F0-ATPase): < 10 µM

Compound: COCC(C)N/C(=N/C(=O)c1ccc(C(F)(F)F)cc1)Nc1cc(C(F)(F)F)n[nH]1 (stereo not shown) [Compound A-97]
- EC50 (Ramos cells; cytotoxicity in Ramos cells): < 10 µM
- IC50 (F1F0-ATPase): < 10 µM

Compound: CC(C)N/C(=N/C(=O)c1ccc(F)c(F)c1)Nc1cc(C(F)(F)F)n[nH]1 [Compound A-98]
- EC50 (Ramos cells; cytotoxicity in Ramos cells): < 10 µM
- IC50 (F1F0-ATPase): < 10 µM

Compound: O=C(/N=C(\Nc1cc(C(F)(F)F)n[nH]1)NC1CCC1)c1ccc(F)c(F)c1 [Compound A-99]
- EC50 (Ramos cells; cytotoxicity in Ramos cells): < 10 µM
- IC50 (F1F0-ATPase): < 10 µM
